Experimental data: patent US20230355632A1, “DEUTERATED PARAXANTHINE AND USES THEREOF” (Lennham Pharmaceuticals, Inc., priority 2020, published 2023)

Columns and labels:
[1] = Pharmacokinetic (PK) study in Sprague-Dawley rats, plasma, oral (gavage) dose; assay type: in vivo; settings: rat; for AUC(0-t) / Cmax / Tmax: plasma, single oral (gavage) dose, fasted male Sprague Dawley rats, target dose 30 mg/kg (paraxanthine-d6 31 mg/kg, adjusted for MW)
Experimental: Two groups of fasted male Sprague-Dawley rats (12 animals per group) may be administered an oral single dose of paraxanthine in deionized water (Group 1) or paraxanthine-d6 (a compound of Formula (Ia)), in deionized water (Group 2) at a target dose level of […]. Serial blood samples may be collected from three animals per group per timepoint prior to dosing and at 0.25, 0.5, 1, 2, 3 4, 6, 8, 10, 12, and 14-hours post dose. No more than three blood samples may be collected from individual animals with the last sample being a terminal blood draw. Terminal brain samples may be collected from three animals per group at 1, 4, 8, and 14-hours post dose. Blood samples may be collected into tubes containing sodium heparin, and then processed for plasma and stored frozen until bioanalysis. Brain samples may be collected following the terminal blood collection, rinsed with saline, and stored frozen until bioanalysis. Plasma and brain samples may be analyzed for paraxanthine and paraxanthine-d6 (a compound of Formula (Ia)) concentration using a liquid chromatography-tandem mass spectrometry (LC-MS/MS) method. Non-compartmental pharmacokinetic parameter estimates may be calculated from the mean plasma concentration-time data. A pharmacokinetic (PK) study was conducted in Sprague-Dawley rats. Mean pharmacokinetic parameter estimates in plasma for paraxanthine and paraxanthine-d6 (a compound of Formula (Ia)) following an oral dose of paraxanthine or D6-paraxanthine to male Sprague-Dawley rats are reported in Table 1. […] The dose level for paraxanthine-d6 (a compound of Formula (Ia)) was adjusted to account for molecular weight differences between paraxanthine (MW=180.17) and paraxanthine-d6 (MW=186.2).

[2] = Human pharmacokinetic (PK) crossover study of caffeine versus d9-caffeine; plasma metabolites paraxanthine / paraxanthine-d6; assay type: in vivo; settings: for elimination ½ life: estimated, over both dose levels (0.26 and 1.29 mmol caffeine or d9-caffeine), as metabolite in human plasma; for AUC(0-t) / Cmax / Tmax / half-life: human, plasma, plasma metabolite, arithmetic mean, healthy adults
Experimental: A double-blind, randomized, two-part, two-period crossover study was conducted to evaluate the pharmacokinetics of caffeine versus d9-caffeine (depicted as compound 14 within U.S. Pat. No. 10,582,716, the disclosure of which is incorporated herein by reference) and their respective metabolites at two dose levels in 20 healthy adult volunteers. A single dose of 50 mg (0.26 mmol) or 250 mg (1.29 mmol) of caffeine, or a molar-equivalent dose of d9-caffeine, were administered in aqueous solution with blood samples collected for up to 48 hours post-dose. Plasma concentrations of parent and metabolites were analyzed using validated LC-MS/MS methods. The pharmacokinetic parameters of the primary caffeine metabolite, paraxanthine, and its respective counterpart, paraxanthine-d6, were analyzed and are reported in Table 2. The elimination ½ life of paraxanthine was estimated at 5-8 hours, consistent with published literature. The elimination ½ life of paraxathine-d6 was estimated at >18-22 hours, a […] difference. […] The data from this study supports the administration of paraxanthine-d6 once daily to humans to prevent or treat various diseases and conditions.

[3] = single dose 0.26 mmol caffeine (paraxanthine) or 0.26 mmol d9-caffeine (paraxanthine-d6)
[4] = single dose 1.29 mmol caffeine (paraxanthine) or 1.29 mmol d9-caffeine (paraxanthine-d6)

| elimination ½ life of paraxanthine-d6 compared with paraxanthine ([1]; in vivo) | AUC(0-t) [1] | Cmax [1] | Tmax [1] | elimination ½ life [2] | AUC(0-t) [2, 3] | Cmax [2, 3] | Tmax [2, 3] | half-life [2, 3] | AUC(0-t) [2, 4] | Cmax [2, 4] | Tmax [2, 4] | half-life [2, 4] | Structure (SMILES) |
| --- | --- | --- | --- | --- | --- | --- | --- | --- | --- | --- | --- | --- | --- |
| no difference | 196 µg·h/mL | 42400 ng/mL | 0.5 h | 18 to 22 h | 110 µM·h | 2900 nM | 21.1 h | > 18 h | 110 µM·h | 2900 nM | 21.1 h | > 22 h | [2H]C([2H])([2H])n1c(=O)[nH]c2ncn(C([2H])([2H])[2H])c2c1=O [Paraxanthine-d6, paraxanthine-d6] |
| – | 170 µg·h/mL | 38900 ng/mL | 0.5 h | 5 to 8 h | 31.5 µM·h | 1620 nM | 8.22 h | 7.58 h | 122 µM·h | 7170 nM | 7.5 h | 5.74 h | Cn1c(=O)[nH]c2ncn(C)c2c1=O [Paraxanthine, paraxanthine] |
